Experimental data from ChEMBL document CHEMBL6071207, “In Vivo-Active Soluble Epoxide Hydrolase-Targeting PROTACs with Improved Potency and Stability” (ACS Med Chem Lett, 2024).
pIC50: −log10 of the molar value. Values belong to the molecule of their own block, whether it stands above or below them. Calls of active or inactive are those of the source. The calls are words filed in the database; no cut-off is given here.

Assays:
[1] = biological target: Protein cereblon/Bifunctional epoxide hydrolase 2 (Homo sapiens, UniProt P34913+Q96SW2); test: PROTAC activity at sEH/CRBN in human HepG2 cells assessed as induction of sEH degradation measured for 24 hrs by immunoblot analysis; assay type: cell-based
Chain of Protein cereblon/Bifunctional epoxide hydrolase 2 (P34913 whole entry): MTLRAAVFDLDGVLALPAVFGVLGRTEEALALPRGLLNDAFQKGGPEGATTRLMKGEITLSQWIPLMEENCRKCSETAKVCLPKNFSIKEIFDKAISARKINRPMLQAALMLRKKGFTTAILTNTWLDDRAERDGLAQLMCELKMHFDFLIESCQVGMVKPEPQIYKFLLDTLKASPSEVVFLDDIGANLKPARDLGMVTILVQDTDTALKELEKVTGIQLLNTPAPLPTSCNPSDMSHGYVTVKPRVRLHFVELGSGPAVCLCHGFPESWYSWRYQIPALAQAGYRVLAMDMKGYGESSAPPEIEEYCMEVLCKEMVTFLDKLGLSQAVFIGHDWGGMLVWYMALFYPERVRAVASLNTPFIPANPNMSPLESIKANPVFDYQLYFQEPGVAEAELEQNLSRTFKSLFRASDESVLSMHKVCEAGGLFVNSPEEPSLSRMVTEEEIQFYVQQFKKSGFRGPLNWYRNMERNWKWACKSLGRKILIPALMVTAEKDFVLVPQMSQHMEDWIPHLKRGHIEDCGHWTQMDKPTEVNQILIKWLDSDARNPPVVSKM
Chain of Protein cereblon/Bifunctional epoxide hydrolase 2 (Q96SW2 whole entry): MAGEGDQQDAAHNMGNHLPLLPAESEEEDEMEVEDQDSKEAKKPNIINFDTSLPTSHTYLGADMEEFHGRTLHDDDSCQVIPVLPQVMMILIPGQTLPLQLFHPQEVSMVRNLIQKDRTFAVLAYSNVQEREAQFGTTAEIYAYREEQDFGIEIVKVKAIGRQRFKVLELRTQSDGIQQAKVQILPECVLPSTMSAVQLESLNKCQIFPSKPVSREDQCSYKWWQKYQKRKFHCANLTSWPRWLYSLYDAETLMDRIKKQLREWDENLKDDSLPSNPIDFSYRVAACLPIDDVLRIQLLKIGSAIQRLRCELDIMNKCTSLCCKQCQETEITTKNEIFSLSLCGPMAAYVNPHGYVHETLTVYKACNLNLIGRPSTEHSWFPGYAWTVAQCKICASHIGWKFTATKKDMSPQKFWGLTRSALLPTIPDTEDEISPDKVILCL

[2] = Chemical stability of compound in cell culture medium assessed as degradation measured after 24 hrs by LC-MS analysis; assay type: physicochemical; details: read-out: Drug degradation
[3] = biological target: T1, Bifunctional epoxide hydrolase 2 (Mus musculus, UniProt P34914); test: Inhibition of mouse recombinant sEH using fluorogenic substrate
T1 sequence (P34914 whole entry): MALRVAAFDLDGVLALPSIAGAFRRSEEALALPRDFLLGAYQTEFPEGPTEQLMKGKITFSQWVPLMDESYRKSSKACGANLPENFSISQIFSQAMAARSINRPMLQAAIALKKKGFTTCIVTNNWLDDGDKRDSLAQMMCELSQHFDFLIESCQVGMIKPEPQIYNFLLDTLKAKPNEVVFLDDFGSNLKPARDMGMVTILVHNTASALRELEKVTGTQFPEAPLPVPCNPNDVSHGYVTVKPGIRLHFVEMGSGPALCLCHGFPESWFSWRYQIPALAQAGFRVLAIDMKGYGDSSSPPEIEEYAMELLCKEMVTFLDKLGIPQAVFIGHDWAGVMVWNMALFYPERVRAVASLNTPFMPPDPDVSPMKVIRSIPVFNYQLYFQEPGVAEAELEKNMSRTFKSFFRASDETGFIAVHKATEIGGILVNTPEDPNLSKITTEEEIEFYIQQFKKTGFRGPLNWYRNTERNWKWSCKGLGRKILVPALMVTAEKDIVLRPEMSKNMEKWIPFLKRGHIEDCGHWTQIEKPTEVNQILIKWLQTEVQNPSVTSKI

[4] = biological target: Eukaryotic translation initiation factor 2 subunit 1 (Homo sapiens) (UniProt P05198); test: Inhibition of eIF2alpha phosphorylation in HEK293T cells at 100 to 1000 nM pretreated with compound for 12 hrs followed by thapsigargin addition and measured after 24 hrs by immunoblotting analysis; assay type: cell-based; details: dose 100-1000 nM, time 36.0 hrs
Chain of Eukaryotic translation initiation factor 2 subunit 1 (Homo sapiens) (P05198 whole entry): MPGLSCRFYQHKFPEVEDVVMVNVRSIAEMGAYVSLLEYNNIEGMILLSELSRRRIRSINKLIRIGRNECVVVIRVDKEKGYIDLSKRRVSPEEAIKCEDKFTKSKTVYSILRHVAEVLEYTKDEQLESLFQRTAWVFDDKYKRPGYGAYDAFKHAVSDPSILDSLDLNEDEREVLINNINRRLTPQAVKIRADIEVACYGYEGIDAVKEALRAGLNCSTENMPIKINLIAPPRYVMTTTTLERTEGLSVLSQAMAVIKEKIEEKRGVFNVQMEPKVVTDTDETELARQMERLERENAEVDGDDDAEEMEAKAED

HEK293T = test: Inhibition of IRE1alpha phosphorylation in HEK293T cells at 100 to 1000 nM pretreated with compound for 12 hrs followed by thapsigargin addition and measured after 24 hrs by immunoblotting analysis; assay type: cell-based; details: Homo sapiens, dose 100-1000 nM, time 36.0 hrs
[5] = Chemical stability of compound in cell culture medium assessed as half life measured for 24 hrs by LC-MS analysis; assay type: physicochemical
[6] = Metabolic stability in mouse liver microsome assessed as half life incubated for 5 to 45 mins in presence of NADPH by UPLC-MS/MS analysis; assay type: ADME; details: liver microsomes, time 5-45 min
[7] = Metabolic stability in mouse liver microsome assessed as intrinsic clearance incubated for 5 to 45 mins in presence of NADPH by UPLC-MS/MS analysis; assay type: ADME; details: liver microsomes, time 5-45 min, read-out: CLH
[8] = Metabolic stability in mouse liver microsome assessed as parent compound remaining incubated for 5 to 45 mins in absence of NADPH by UPLC-MS/MS analysis; assay type: ADME; details: microsomes, time 5-45 min
[9] = biological target: T2, Eukaryotic translation initiation factor 2-alpha kinase 3 (Homo sapiens) (UniProt Q9NZJ5); test: Inhibition of PERK phosphorylation in HEK293T cells at 100 to 1000 nM pretreated with compound for 12 hrs followed by thapsigargin addition and measured after 24 hrs by immunoblotting analysis; assay type: cell-based; details: dose 100-1000 nM, time 36.0 hrs
T2 sequence (whole entry): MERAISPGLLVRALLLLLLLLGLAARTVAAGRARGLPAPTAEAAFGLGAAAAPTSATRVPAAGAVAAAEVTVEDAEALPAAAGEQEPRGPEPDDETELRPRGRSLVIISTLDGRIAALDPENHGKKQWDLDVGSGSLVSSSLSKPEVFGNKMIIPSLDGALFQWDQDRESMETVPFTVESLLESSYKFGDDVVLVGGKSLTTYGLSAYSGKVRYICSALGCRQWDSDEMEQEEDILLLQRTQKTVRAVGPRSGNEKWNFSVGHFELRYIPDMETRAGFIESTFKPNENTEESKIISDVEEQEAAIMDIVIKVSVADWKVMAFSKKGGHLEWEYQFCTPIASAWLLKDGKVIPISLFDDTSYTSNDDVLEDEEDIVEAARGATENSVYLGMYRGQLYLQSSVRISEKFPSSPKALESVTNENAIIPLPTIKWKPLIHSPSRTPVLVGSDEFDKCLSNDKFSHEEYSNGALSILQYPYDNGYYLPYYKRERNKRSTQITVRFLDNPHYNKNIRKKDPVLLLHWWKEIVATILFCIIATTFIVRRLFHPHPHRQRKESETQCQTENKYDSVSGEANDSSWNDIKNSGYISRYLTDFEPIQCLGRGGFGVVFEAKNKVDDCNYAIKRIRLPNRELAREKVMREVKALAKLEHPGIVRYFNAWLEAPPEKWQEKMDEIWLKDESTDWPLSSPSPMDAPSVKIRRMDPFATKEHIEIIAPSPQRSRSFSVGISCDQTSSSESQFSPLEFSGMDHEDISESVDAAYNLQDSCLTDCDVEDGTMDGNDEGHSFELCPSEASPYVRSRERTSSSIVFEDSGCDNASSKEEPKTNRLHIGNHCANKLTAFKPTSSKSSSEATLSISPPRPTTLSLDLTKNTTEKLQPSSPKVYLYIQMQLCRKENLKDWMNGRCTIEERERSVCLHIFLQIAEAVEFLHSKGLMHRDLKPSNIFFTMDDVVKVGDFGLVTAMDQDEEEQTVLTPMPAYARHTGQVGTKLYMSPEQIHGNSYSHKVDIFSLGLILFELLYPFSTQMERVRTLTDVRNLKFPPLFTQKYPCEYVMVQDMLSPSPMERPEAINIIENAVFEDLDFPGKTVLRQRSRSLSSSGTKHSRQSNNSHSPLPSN

HEK-293T [10] = test: Induction of apoptosis in HEK293T cells assessed as chromatin condensation by measuring improvement in cell survival pretreated with compound for 12 hrs followed by thapsigargin addition and measured after 24 hrs by Hoechst33258 staining based analysis; assay type: functional; details: Homo sapiens, time 36.0 hrs
HEK-293T [11] = test: Induction of apoptosis in HEK293T cells assessed as reduction in thapsigargin-induced cell death pretreated with compound for 12 hrs followed by thapsigargin addition and measured after 24 hrs by propidium iodide staining based analysis; assay type: functional; details: Homo sapiens, time 36.0 hrs
HepG2 = test: Cytotoxicity against human HepG2 cells assessed as cell viability at 1 uM incubated for 24 hrs by MTT assay; details: HepG2, 24 h, read-out: Activity
[12] = Half life in male CD-1 mouse at 10 mg/kg, ip measured up to 24 hrs by LC-MS/MS analysis; assay type: ADME, organism-based; details: in vivo
[13] = Tmax in male CD-1 mouse at 10 mg/kg, ip measured up to 24 hrs by LC-MS/MS analysis; assay type: ADME, organism-based; details: in vivo
[14] = Cmax in male CD-1 mouse at 10 mg/kg, ip measured up to 24 hrs by LC-MS/MS analysis; assay type: ADME, organism-based; details: in vivo
[15] = AUC (0 to infinity) in male CD-1 mouse at 10 mg/kg, ip measured up to 24 hrs by LC-MS/MS analysis; assay type: ADME, organism-based; details: in vivo
[16] = MRT (0 to infinity) in male CD-1 mouse at 10 mg/kg, ip measured up to 24 hrs by LC-MS/MS analysis; assay type: ADME, organism-based; details: in vivo
[17] = biological target: T3, Protein cereblon/Bifunctional epoxide hydrolase 2 (Mus musculus) (UniProt P34914+Q8C7D2); test: In-vivo PROTAC activity at sEH/CRBN in Male C57BL/6J mouse assessed as reduction in sEH level in liver at 12 mg/kg, ip measured after 24 hrs by immunoblotting analysis; assay type: functional, organism-based
T3 sequence (Q8C7D2 whole entry, looked up, one chain of several): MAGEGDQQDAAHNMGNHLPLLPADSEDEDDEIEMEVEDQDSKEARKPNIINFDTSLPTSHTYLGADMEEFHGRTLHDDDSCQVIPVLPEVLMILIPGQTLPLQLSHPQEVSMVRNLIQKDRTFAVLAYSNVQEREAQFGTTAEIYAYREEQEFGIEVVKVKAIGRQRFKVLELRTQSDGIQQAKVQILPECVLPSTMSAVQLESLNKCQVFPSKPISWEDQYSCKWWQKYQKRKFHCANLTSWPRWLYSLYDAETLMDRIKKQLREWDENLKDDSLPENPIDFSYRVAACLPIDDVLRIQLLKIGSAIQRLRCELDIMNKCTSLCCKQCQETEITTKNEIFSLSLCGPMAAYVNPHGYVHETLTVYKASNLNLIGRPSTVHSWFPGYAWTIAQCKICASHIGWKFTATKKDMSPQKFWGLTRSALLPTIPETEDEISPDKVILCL

[18] = biological target: T3, Protein cereblon/Bifunctional epoxide hydrolase 2 (Mus musculus); test: In-vivo PROTAC activity at sEH/CRBN in Male C57BL/6J mouse assessed as reduction in sEH level in BAT at 12 mg/kg, ip measured after 24 hrs by immunoblotting analysis; assay type: functional, organism-based
[19] = Chemical stability of compound in cell culture medium assessed as parent compound remaining measured for 24 hrs by LC-MS analysis; assay type: physicochemical; details: read-out: Stability

SMILES: O=C1CCC(N2C(=O)c3ccc(N4CCN(CC5CCN(C(=O)CCCCCCCCNC(=O)c6ccc(O[C@H]7CC[C@H](NC(=O)Nc8ccc(OC(F)(F)F)cc8)CC7)cc6)CC5)CC4)cc3C2=O)C(=O)N1 (stereo partly specified)
inhibition [4]: Active | inhibition (HEK293T): Active | pIC50 [3]: 6.68 | half-life [5]: > 1440 min | half-life [6]: > 120 min | CLint scaled [7]: 43 mL/min/kg | Stability [8]: > 99% | inhibition [9]: Active | Activity (HEK-293T [10]): Active | Activity (HEK-293T [11]): Active | viability at 1 µM (HepG2): -38% | half-life [12]: 720 min | Tmax [13]: 6.7 h | Cmax [14]: 2800 ng/mL | AUC(0-inf) [15]: 58000 ng·h/mL | MRT inf [16]: 17 h | Activity [17]: Active | Activity [18]: Active

SMILES: O=C1CCC(N2Cc3cc(N4CCN(C(=O)CCCCCCCCNC(=O)c5ccc(O[C@H]6CC[C@H](NC(=O)Nc7ccc(OC(F)(F)F)cc7)CC6)cc5)CC4)ccc3C2=O)C(=O)N1 (stereo partly specified)
pIC50 [3]: 8.55 | viability at 1 µM (HepG2): 46% | remaining at 24 h [19]: 57%

SMILES: Cc1ncsc1-c1ccc(CNC(=O)[C@@H]2C[C@@H](O)CN2C(=O)[C@@H](NC(=O)CCOCCOCCOCCOCCC(=O)N2CCC(NC(=O)Nc3ccc(OC(F)(F)F)cc3)CC2)C(C)(C)C)cc1
pIC50 [3]: 8.00

Second part, the molecule after the results:

DC50 [1]: > 1000 nM | degraded at 24 h [2]: ~100%
SMILES: O=C(COc1cccc2c1C(=O)N(C1CCC(=O)NC1=O)C2=O)NCCOCCOCCOCCCNC(=O)c1ccc(O[C@H]2CC[C@H](NC(=O)Nc3ccc(OC(F)(F)F)cc3)CC2)cc1 (stereo partly specified)

pIC50 [3]: 7.70
SMILES: O=C1CCC(N2C(=O)c3cc(F)c(N4CCN(CC5CCN(C(=O)CCCCCCCCNC(=O)c6ccc(O[C@H]7CC[C@H](NC(=O)Nc8ccc(OC(F)(F)F)cc8)CC7)cc6)CC5)CC4)cc3C2=O)C(=O)N1 (stereo partly specified)

pIC50 [3]: 8.34 | half-life [12]: 348 min | Tmax [13]: 0.33 h | Cmax [14]: 3000 ng/mL | AUC(0-inf) [15]: 61000 ng·h/mL | MRT inf [16]: 4 h
SMILES: O=C1CCC(N2C(=O)c3ccc(N4CCN(CC5CCN(C(=O)CCCCCCCCC(=O)N6CCC(NC(=O)Nc7ccc(OC(F)(F)F)cc7)CC6)CC5)CC4)cc3C2=O)C(=O)N1 (stereo unspecified)

pIC50 [3]: 8.00 | half-life [5]: > 1440 min | half-life [6]: 31 min | CLint scaled [7]: 170 mL/min/kg | Stability [8]: > 99%
SMILES: O=C1CCC(N2C(=O)c3ccc(N4CCN(C(=O)CCCCCCCCNC(=O)c5ccc(O[C@H]6CC[C@H](NC(=O)Nc7ccc(OC(F)(F)F)cc7)CC6)cc5)CC4)cc3C2=O)C(=O)N1 (stereo partly specified)
